Data reported in PubChem BioAssay (NCI).
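A five-concentration, 48-hour dose response in 96-well plates underlies each endpoint, interpolated linearly between surrounding concentrations. The concentration for 50% growth inhibition is given as GI50. TGI: total growth inhibition.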

Columns and labels:
Assay in all cases: NCI-60 cell line screen, 48 h
[1] = test system: OVCAR-3 ovarian
[2] = test system: K-562 leukemia
[3] = test system: HS 578T breast
[4] = test system: HCC-2998 colon
[5] = test system: HT29 colon
[6] = test system: MALME-3M melanoma
[7] = test system: SW-620 colon
[8] = test system: SNB-19 CNS
[9] = test system: EKVX NSCLC
[10] = test system: A549 NSCLC
[11] = test system: SK-MEL-2 melanoma
[12] = test system: MDA-MB-231 breast
[13] = test system: NCI/ADR-RES ovarian
[14] = test system: HCT-15 colon
[15] = test system: HL-60(TB) leukemia
[16] = test system: OVCAR-8 ovarian
[17] = test system: PC-3 prostate
[18] = test system: SK-MEL-5 melanoma
[19] = test system: TK-10 renal
[20] = test system: KM12 colon
[21] = test system: SNB-75 CNS
[22] = test system: HCT-116 colon
[23] = test system: T-47D breast
[24] = test system: SF-539 CNS
[25] = test system: SF-268 CNS
[26] = test system: UO-31 renal
[27] = test system: NCI-H226 lung
[28] = test system: SN12C renal
[29] = test system: UACC-257 melanoma
[30] = test system: 786-0 renal
[31] = test system: M14 melanoma
[32] = test system: NCI-H522 lung
[33] = test system: COLO 205 colon
[34] = test system: RXF 393 renal
[35] = test system: NCI-H23 lung
[36] = test system: HOP-92 NSCLC
[37] = test system: BT-549 breast
[38] = test system: UACC-62 melanoma
[39] = test system: LOX IMVI melanoma
[40] = test system: CAKI-1 renal
[41] = test system: DU-145 prostate
[42] = test system: SK-MEL-28 melanoma
[43] = test system: MOLT-4 leukemia
[44] = test system: U251 CNS
[45] = test system: OVCAR-5 ovarian
[46] = test system: NCI-H460 lung
[47] = test system: A498 renal
[48] = test system: SK-OV-3 ovarian
[49] = test system: MDA-MB-435
[50] = test system: HOP-62 NSCLC
[51] = test system: SR leukemia
[52] = test system: OVCAR-4 ovarian
[53] = test system: ACHN renal
[54] = test system: SF-295 CNS
[55] = test system: IGROV1 ovarian
[56] = test system: MCF7 breast
[57] = test system: RPMI-8226 leukemia
[58] = test system: CCRF-CEM leukemia

## COc1cc(-c2ccc(=O)oc2C#Cc2ccccc2)cc(OC)c1OC
[1]
  GI50: 36.4 µM
  TGI: > 100 µM
[2]
  GI50: 86.1 µM
  TGI: > 100 µM
[3]
  GI50: 6.02 µM
  TGI: 48.4 µM
[4]
  GI50: > 100 µM
  TGI: > 100 µM
[5]
  GI50: 16.6 µM
  TGI: > 100 µM
[6]
  GI50: > 100 µM
  TGI: > 100 µM
[7]
  GI50: 13.3 µM
  TGI: > 100 µM
[8]
  GI50: 29.9 µM
  TGI: 93.3 µM
[9]
  GI50: 83.4 µM
  TGI: > 100 µM
[10]
  GI50: 3.22 µM
  TGI: 91.1 µM
[11]
  GI50: 23.2 µM
  TGI: > 100 µM
[12]
  GI50: 12.4 µM
  TGI: 35.8 µM
[13]
  GI50: > 100 µM
  TGI: > 100 µM
[14]
  GI50: 13.8 µM
  TGI: > 100 µM
[15]
  GI50: 8.56 µM
  TGI: > 100 µM
[16]
  GI50: 52.5 µM
  TGI: > 100 µM
[17]
  GI50: > 100 µM
  TGI: > 100 µM
[18]
  GI50: 3.49 µM
  TGI: > 100 µM
[19]
  GI50: 29 µM
  TGI: > 100 µM
[20]
  GI50: 34.6 µM
  TGI: > 100 µM
[21]
  GI50: 12.1 µM
  TGI: 32.6 µM
[22]
  GI50: 1.66 µM
  TGI: > 100 µM
[23]
  GI50: 45.2 µM
  TGI: > 100 µM
[24]
  GI50: 12.7 µM
  TGI: > 100 µM
[25]
  GI50: 12.7 µM
  TGI: > 100 µM
[26]
  GI50: 9.1 µM
  TGI: > 100 µM
[27]
  GI50: 22.8 µM
  TGI: > 100 µM
[28]
  GI50: 15.9 µM
  TGI: > 100 µM
[29]
  GI50: 56.7 µM
  TGI: > 100 µM
[30]
  GI50: 32.6 µM
  TGI: > 100 µM
[31]
  GI50: 48.9 µM
  TGI: > 100 µM
[32]
  GI50: 44.5 µM
  TGI: > 100 µM
[33]
  GI50: 34.1 µM
  TGI: > 100 µM
[34]
  GI50: 0.945 µM
  TGI: 19.9 µM
[35]
  GI50: 36.9 µM
  TGI: > 100 µM
[36]
  GI50: 16.1 µM
  TGI: 39.2 µM
[37]
  GI50: 19.2 µM
  TGI: 63.4 µM
[38]
  GI50: 11.6 µM
  TGI: > 100 µM
[39]
  GI50: 1.57 µM
  TGI: > 100 µM
[40]
  GI50: 27.4 µM
  TGI: > 100 µM
[41]
  GI50: 28.3 µM
  TGI: > 100 µM
[42]
  GI50: 26.7 µM
  TGI: > 100 µM
[43]
  GI50: 13.2 µM
  TGI: > 100 µM
[44]
  GI50: 8.09 µM
  TGI: 34.4 µM
[45]
  GI50: > 100 µM
  TGI: > 100 µM
[46]
  GI50: > 100 µM
  TGI: > 100 µM
[47]
  GI50: 30.4 µM
  TGI: 70.6 µM
[48]
  GI50: 28.5 µM
  TGI: 92.9 µM
[49]
  GI50: 14.6 µM
  TGI: > 100 µM
[50]
  GI50: 19 µM
  TGI: 66.8 µM
[51]
  GI50: 2.4 µM
  TGI: > 100 µM
[52]
  GI50: > 100 µM
  TGI: > 100 µM
[53]
  GI50: 14.8 µM
  TGI: 90.2 µM
[54]
  GI50: 11.2 µM
  TGI: 35.5 µM

## CCOC(=O)C1=C(C)N(c2ccc(Cl)cc2)C2(O)C=CC(Nc3ccc(Cl)cc3)=C3C(=O)N(c4ccccc4)C(=O)C312 (stereo not given)
[1]
  TGI: 2.09 µM
[2]
  TGI: > 100 µM
[3]
  TGI: > 100 µM
[55]
  TGI: 21.9 µM
[5]
  TGI: 16.9 µM
[6]
  TGI: 33.7 µM
[7]
  TGI: 14.6 µM
[56]
  TGI: 9.3 µM
[8]
  TGI: 52.3 µM
[10]
  TGI: > 100 µM
[11]
  TGI: 10.5 µM
[12]
  TGI: 35.2 µM
[13]
  TGI: 12.7 µM
[14]
  TGI: 16.3 µM
[15]
  TGI: 23.4 µM
[16]
  TGI: 18.1 µM
[17]
  TGI: 22.8 µM
[18]
  TGI: 11 µM
[19]
  TGI: 52.1 µM
[20]
  TGI: 23.1 µM
[21]
  TGI: 20.3 µM
[23]
  TGI: 19.4 µM
[24]
  TGI: 18.3 µM
[25]
  TGI: 20.1 µM
[26]
  TGI: 20.3 µM
[57]
  TGI: 4.13 µM
[28]
  TGI: 13.4 µM
[29]
  TGI: 39.2 µM
[58]
  TGI: 8.39 µM
[31]
  TGI: 19.7 µM
[32]
  TGI: 5.25 µM
[33]
  TGI: 7.2 µM
[35]
  TGI: 20 µM
[36]
  TGI: 9.19 µM
[37]
  TGI: 4.69 µM
[38]
  TGI: 7.15 µM
[39]
  TGI: 4.36 µM
[40]
  TGI: 13.5 µM
[41]
  TGI: 17.8 µM
[42]
  TGI: 6.89 µM
[43]
  TGI: > 100 µM
[44]
  TGI: 39.5 µM
[45]
  TGI: 21.3 µM
[46]
  TGI: 13.7 µM
[47]
  TGI: 9.33 µM
[48]
  TGI: 24.9 µM
[49]
  TGI: 5.29 µM
[50]
  TGI: 14.9 µM
[51]
  TGI: > 100 µM
[52]
  TGI: 15.1 µM
[53]
  TGI: 20 µM
[54]
  TGI: 13.8 µM
